These results are taken from paper PMC9133015 (Nature Communications, 2022).

What all share (experiment): Kinase inhibitor specificity profiling (Reaction Biology Corporation)
Holding throughout (type): biochemical
Design in all cases: % Enzyme Activity (relative to DMSO controls): concentration or dose not given beside the values

Test [1] deals with T1, panel of 370 protein kinases (Homo sapiens, UniProt P15056).
T1 construct: purchased Reaction Biology Corporation (assay service)
The conditions noted are these: 2 h, kinase BRAF; read-out: % Enzyme Activity (relative to DMSO controls).

In test [2] the target is T2, panel of 370 protein kinases (Homo sapiens, UniProt P23458).
T2 construct: purchased Reaction Biology Corporation (assay service)
The note with it: kinase JAK1.

The target in test [3] is T3, panel of 370 protein kinases (Homo sapiens, UniProt Q9NR20).
T3 construct: purchased Reaction Biology Corporation (assay service)
The conditions noted are these: 2 h, read-out: % Enzyme Activity (relative to DMSO controls), kinase DYRK4.

Test [4] addresses T4, panel of 370 protein kinases (Homo sapiens, UniProt P68400).
T4 construct: purchased Reaction Biology Corporation (assay service)
The conditions noted are these: 2 h, kinase CK2a; read-out: % Enzyme Activity (relative to DMSO controls).

Test [5] has as its target T5, panel of 370 protein kinases (Homo sapiens, UniProt Q9P289).
T5 construct: purchased Reaction Biology Corporation (assay service)
The note with it: 2 h, kinase MST4; read-out: % Enzyme Activity (relative to DMSO controls).

Test [6] concerns the target T6, panel of 370 protein kinases (Homo sapiens, UniProt O75676).
T6 construct: purchased Reaction Biology Corporation (assay service)
The note with it: 2 h, kinase MSK2/RPS6KA4; read-out: % Enzyme Activity (relative to DMSO controls).

Test [7] deals with T7, panel of 370 protein kinases (Homo sapiens, UniProt Q9BWU1).
T7 construct: purchased Reaction Biology Corporation (assay service)
The conditions noted are these: kinase CDK19/cyclin C.

For test [8], the target named is T8, panel of 370 protein kinases (Homo sapiens, UniProt Q8WTQ7).
T8 construct: purchased Reaction Biology Corporation (assay service)
The note with it: 2 h, kinase GRK7; read-out: % Enzyme Activity (relative to DMSO controls).

Test [9] addresses T9, panel of 370 protein kinases (Homo sapiens, UniProt P36507).
T9 construct: purchased Reaction Biology Corporation (assay service)
The note with it: 2 h, kinase MEK2; read-out: % Enzyme Activity (relative to DMSO controls).

Test [10] addresses T10, panel of 370 protein kinases (Homo sapiens, UniProt Q5TCX8).
T10 construct: purchased Reaction Biology Corporation (assay service)
The conditions noted are these: 2 h, kinase MLK4; read-out: % Enzyme Activity (relative to DMSO controls).

Test [11] addresses T11, panel of 370 protein kinases (Homo sapiens, UniProt P05129).
T11 construct: purchased Reaction Biology Corporation (assay service)
The conditions noted are these: 2 h, kinase PKCg; read-out: % Enzyme Activity (relative to DMSO controls).

Test [12] deals with T12, panel of 370 protein kinases (Homo sapiens, UniProt P50613).
T12 construct: purchased Reaction Biology Corporation (assay service)
The note with it: 2 h, kinase CDK7/cyclin H; read-out: % Enzyme Activity (relative to DMSO controls).

Test [13] concerns the target T13, panel of 370 protein kinases (Homo sapiens, UniProt Q9UQB9).
T13 construct: purchased Reaction Biology Corporation (assay service)
The note with it: 2 h, kinase AURORA C; read-out: % Enzyme Activity (relative to DMSO controls).

Test [14] deals with T14, panel of 370 protein kinases (Homo sapiens, UniProt O75914).
T14 construct: purchased Reaction Biology Corporation (assay service)
The conditions noted are these: 2 h, kinase PAK3; read-out: % Enzyme Activity (relative to DMSO controls).

In test [15] the target is T15, panel of 370 protein kinases (Homo sapiens, UniProt Q96L34).
T15 construct: purchased Reaction Biology Corporation (assay service)
The note with it: kinase MARK4.

The target in test [16] is T16, panel of 370 protein kinases (Homo sapiens, UniProt Q05397).
T16 construct: purchased Reaction Biology Corporation (assay service)
The conditions noted are these: 2 h, kinase FAK/PTK2; read-out: % Enzyme Activity (relative to DMSO controls).

Test [17] deals with T17, panel of 370 protein kinases (Homo sapiens, UniProt Q9H093).
T17 construct: purchased Reaction Biology Corporation (assay service)
The conditions noted are these: kinase SNARK/NUAK2.

Test [18] addresses T18, panel of 370 protein kinases (Homo sapiens, UniProt P28482).
T18 construct: purchased Reaction Biology Corporation (assay service)
The note with it: 2 h, kinase ERK2/MAPK1; read-out: % Enzyme Activity (relative to DMSO controls).

Test [19] deals with T19, panel of 370 protein kinases (Homo sapiens, UniProt Q76MJ5).
T19 construct: purchased Reaction Biology Corporation (assay service)
The conditions noted are these: 2 h, kinase ERN2/IRE2; read-out: % Enzyme Activity (relative to DMSO controls).

In test [20] the target is T20, panel of 370 protein kinases (Homo sapiens, UniProt P51617).
T20 construct: purchased Reaction Biology Corporation (assay service)
The conditions noted are these: 2 h, kinase IRAK1; read-out: % Enzyme Activity (relative to DMSO controls).

Test [21] addresses T21, panel of 370 protein kinases (Homo sapiens, UniProt P54760).
T21 construct: purchased Reaction Biology Corporation (assay service)
The note with it: 2 h, kinase EPHB4; read-out: % Enzyme Activity (relative to DMSO controls).

In test [22] the target is T22, panel of 370 protein kinases (Homo sapiens, UniProt P51957).
T22 construct: purchased Reaction Biology Corporation (assay service)
The note with it: 2 h, kinase NEK4; read-out: % Enzyme Activity (relative to DMSO controls).

Where “and” joins values, the source holds several entries; their conditions need not be identical. Identical values can stand only once.

T7 sequence (Q9BWU1 whole entry): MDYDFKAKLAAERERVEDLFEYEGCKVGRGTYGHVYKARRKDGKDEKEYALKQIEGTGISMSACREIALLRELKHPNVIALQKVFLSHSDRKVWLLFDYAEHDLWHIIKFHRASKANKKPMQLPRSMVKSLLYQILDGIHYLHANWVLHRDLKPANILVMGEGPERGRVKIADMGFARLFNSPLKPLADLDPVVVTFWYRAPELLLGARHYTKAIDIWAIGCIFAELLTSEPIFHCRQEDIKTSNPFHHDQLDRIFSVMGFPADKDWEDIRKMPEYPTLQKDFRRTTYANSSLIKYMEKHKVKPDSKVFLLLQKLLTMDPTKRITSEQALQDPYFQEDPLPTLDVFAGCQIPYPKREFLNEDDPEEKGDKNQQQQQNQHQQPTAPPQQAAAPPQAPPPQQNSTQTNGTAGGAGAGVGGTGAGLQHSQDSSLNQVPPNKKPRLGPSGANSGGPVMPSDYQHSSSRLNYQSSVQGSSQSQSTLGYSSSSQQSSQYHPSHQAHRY
T15 sequence (Q96L34 whole entry): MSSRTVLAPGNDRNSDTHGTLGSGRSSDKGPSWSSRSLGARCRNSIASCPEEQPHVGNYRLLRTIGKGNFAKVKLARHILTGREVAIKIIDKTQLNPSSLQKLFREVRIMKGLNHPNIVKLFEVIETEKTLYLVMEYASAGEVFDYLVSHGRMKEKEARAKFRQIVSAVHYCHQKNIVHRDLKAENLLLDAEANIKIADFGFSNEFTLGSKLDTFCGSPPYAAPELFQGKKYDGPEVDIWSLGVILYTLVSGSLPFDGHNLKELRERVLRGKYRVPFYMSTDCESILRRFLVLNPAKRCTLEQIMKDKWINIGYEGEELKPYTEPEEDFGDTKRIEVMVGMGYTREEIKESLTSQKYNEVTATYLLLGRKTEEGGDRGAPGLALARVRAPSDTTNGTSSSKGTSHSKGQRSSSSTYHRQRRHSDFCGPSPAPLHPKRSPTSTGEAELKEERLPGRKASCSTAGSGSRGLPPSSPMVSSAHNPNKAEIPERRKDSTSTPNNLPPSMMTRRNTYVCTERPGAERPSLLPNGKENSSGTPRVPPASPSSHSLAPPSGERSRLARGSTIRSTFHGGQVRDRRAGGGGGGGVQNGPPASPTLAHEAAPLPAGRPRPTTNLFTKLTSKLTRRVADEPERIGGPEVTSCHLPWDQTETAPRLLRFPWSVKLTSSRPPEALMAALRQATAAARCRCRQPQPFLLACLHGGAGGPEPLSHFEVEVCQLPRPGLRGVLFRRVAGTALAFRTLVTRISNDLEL
T2 sequence (P23458 whole entry): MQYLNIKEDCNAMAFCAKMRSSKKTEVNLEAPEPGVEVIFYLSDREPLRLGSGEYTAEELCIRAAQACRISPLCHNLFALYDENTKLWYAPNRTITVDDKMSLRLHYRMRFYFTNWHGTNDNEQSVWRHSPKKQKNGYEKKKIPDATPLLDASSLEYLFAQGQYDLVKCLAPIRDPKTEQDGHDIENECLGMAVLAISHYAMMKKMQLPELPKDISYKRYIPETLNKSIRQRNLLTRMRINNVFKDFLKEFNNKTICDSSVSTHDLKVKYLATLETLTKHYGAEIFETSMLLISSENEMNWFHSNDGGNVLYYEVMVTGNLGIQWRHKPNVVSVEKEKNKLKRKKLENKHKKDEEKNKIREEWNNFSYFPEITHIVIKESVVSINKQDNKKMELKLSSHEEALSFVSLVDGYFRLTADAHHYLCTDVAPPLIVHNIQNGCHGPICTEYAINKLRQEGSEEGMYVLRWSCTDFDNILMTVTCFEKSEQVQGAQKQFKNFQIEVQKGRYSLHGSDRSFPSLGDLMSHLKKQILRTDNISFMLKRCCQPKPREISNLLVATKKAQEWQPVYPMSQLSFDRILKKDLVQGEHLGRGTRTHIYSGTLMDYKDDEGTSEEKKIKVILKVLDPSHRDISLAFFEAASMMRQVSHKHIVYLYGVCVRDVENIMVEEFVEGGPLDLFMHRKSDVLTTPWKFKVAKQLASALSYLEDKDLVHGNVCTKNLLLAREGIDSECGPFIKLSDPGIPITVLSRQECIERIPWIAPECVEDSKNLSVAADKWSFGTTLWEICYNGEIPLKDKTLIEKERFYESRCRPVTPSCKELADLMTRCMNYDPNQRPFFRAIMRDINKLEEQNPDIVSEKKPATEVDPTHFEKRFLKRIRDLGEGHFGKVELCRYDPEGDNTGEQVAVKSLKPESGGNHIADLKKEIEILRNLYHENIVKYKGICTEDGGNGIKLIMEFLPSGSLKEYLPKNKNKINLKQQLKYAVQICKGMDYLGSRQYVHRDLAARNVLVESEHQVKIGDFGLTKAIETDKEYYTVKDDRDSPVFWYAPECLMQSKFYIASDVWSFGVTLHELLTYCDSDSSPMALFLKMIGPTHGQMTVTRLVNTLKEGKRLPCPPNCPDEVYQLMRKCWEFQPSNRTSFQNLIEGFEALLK
T17 sequence (Q9H093 whole entry): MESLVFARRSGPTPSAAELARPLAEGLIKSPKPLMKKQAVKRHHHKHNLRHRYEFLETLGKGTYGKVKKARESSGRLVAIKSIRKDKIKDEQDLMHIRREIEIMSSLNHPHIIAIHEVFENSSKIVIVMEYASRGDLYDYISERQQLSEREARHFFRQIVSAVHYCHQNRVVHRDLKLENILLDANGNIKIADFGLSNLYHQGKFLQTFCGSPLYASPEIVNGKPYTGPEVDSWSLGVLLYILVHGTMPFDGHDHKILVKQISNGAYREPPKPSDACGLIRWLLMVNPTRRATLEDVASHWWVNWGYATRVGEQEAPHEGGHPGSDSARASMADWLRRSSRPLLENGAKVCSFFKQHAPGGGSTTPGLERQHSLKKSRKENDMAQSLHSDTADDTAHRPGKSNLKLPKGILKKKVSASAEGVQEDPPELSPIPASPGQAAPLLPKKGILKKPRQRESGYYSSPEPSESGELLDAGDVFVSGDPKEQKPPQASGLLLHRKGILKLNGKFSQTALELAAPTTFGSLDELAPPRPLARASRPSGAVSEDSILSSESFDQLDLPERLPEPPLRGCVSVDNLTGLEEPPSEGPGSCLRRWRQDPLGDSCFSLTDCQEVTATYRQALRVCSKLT
T18 sequence (P28482 whole entry): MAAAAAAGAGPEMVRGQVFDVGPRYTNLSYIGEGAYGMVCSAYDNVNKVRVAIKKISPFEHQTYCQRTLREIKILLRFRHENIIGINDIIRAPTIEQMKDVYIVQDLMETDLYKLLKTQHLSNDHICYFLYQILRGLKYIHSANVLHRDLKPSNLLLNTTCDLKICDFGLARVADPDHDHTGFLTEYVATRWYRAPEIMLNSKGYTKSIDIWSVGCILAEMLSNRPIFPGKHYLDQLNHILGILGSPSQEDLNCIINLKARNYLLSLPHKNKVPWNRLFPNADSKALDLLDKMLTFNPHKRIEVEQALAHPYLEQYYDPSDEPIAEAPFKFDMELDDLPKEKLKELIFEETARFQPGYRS
T21 sequence (P54760 16-987): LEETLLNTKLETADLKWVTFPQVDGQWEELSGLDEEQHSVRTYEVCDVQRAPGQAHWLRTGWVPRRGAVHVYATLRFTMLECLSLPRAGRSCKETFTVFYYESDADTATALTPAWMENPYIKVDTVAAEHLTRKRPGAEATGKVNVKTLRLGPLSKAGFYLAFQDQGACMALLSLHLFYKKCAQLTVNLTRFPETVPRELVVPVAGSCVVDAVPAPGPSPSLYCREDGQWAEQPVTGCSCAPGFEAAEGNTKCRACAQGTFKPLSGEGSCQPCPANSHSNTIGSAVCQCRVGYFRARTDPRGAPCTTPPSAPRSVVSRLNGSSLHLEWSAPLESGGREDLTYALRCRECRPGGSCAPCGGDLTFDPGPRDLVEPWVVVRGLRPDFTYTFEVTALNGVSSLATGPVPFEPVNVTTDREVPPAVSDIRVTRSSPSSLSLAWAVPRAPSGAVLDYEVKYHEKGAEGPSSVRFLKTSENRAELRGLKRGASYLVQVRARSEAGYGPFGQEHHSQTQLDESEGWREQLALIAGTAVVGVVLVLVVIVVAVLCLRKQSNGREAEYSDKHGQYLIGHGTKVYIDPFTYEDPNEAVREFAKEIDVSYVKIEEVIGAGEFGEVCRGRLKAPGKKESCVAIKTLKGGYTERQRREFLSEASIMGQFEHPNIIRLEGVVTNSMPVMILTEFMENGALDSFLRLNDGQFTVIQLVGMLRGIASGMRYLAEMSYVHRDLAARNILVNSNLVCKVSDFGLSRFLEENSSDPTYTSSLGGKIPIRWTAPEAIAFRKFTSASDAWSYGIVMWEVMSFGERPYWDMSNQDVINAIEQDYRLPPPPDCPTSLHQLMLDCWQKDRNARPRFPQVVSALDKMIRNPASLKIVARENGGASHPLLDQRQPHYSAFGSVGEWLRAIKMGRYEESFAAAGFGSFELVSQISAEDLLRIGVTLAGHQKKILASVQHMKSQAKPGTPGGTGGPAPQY
T3 sequence (Q9NR20 whole entry): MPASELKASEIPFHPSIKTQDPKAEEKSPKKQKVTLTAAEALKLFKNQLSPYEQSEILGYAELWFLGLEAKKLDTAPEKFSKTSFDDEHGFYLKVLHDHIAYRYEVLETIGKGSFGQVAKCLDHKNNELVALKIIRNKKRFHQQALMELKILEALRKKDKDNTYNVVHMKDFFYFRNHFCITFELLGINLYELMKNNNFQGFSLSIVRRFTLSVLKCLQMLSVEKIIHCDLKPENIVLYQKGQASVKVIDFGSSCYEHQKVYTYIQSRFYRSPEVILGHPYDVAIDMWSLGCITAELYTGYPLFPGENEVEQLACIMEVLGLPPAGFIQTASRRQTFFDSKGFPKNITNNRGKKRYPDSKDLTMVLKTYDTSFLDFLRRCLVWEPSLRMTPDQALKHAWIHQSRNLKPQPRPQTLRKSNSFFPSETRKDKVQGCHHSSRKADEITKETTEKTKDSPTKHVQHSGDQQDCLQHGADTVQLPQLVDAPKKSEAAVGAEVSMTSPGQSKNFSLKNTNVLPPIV

As to `CCN1CCN(C(=O)c2ccc(Nc3ncc(F)c(-c4ccc5nc(N(C)C)sc5c4)n3)nc2)CC1` [YK-2-69], the remaining activity at 1 µM in test [1] is 95.2%; in [3], 50%; in [4], 52.3%; in test [5], 98.4%; in [6] it was 96.2%; in test [8], 102%. Besides, the remaining activity at 1 µM turned out to be 97.4% in test [9]; 104% in [10]; 90.9% in test [11]; 99.1% in test [12]; 94.7% in test [13]; 160% in [14]. Moreover, the remaining activity at 1 µM was 95.9% in test [16]; 101% in test [18]; 88.5% in test [19]; 90.6% in test [20]; 106% in test [21]; 112% in test [22]. Further, the “% Enzyme Activity (relative to DMSO controls)” value is 103.96% and 100.40% in test [2]; 59.42% and 58.05% in [7]; 79.55% and 79.20% in test [15]; 95.57% and 95.00% in test [17].
